Reference: patent publication US5374636A, “2,3-trans-disubstituted tropane compounds which have useful pharmaceutical utility” (NeuroSearch A/S, priority 1992, dated 1994)

Key:
[1] = system: reuptake of dopamine in synaptosomes of rat forebmin; experiment: Inhibition of reuptake of dopamine in synaptosomes of rat forebrain (3H-dopamine uptake); format: biochemical, rat (male Wistar); conditions: for IC50: rat forebrain synaptosomes, 3H-dopamine 1×10^-9 M, 10 min at 37° C., read-out: Dopamine reuptake inhibiting activity (IC50)
Method: Fresh whole forebmin (at 0°-4° C.) from male Wistar rats (150-200 g) is homogenized in a glass homogenizer with a teflon pestle in 20×volumes 0.32M sucrose. The homogenate is centrifuged at 1000×g (~2900 rpm) for 10 min. The pellet is discarded and the supernatant is used for uptake assays.
The samples are thoroughly mixed and incubated 10 min at 37° C. followed by 2 min at 0° C. After incubation the samples are poured directly onto Whatman GF/C glass fibre filters under suction and immediately washed with 2×5 ml ice-cold 0.9% saline (NaCI) buffer. To the filter is added 3 ml of scintillation fluid, and the amount of radioactivity on the filters is determined by conventional liquid scintillation counting.

[2] = system: excitatory Iocomotor and rearing responses; experiment: Classification of behavioural excitatory locomotor and rearing responses (side effect); format: in vivo, rat (male SPF wistar)
Method: Male SPF wistar rats weighing 200-250 g were used for the gross behavioural studies. All rats were transferred the day before the experiments to individual cages made of wire netting (floor area 21×27 cm, height 16 cm) at a room temperature of 21°-23° C. […] The behavioural elements here classified as rearing (i.e. standing up on the hindlegs) and Iocomotor activities (i.e. forward running activities) were registered, and the maximum peak effects were classified according to the following rating scale:
0=non-existent or very infrequent
++=moderate in intensity and frequency
+++=very strong, continuous and intense

[3] = system: abnormal stereotyped behaviour; experiment: Classification of the abnormal stereotyped behaviour (side effect); format: in vivo, rat
Excerpt: Classification of the abnormal stereotyped behaviour.
Backward locomotion may occasionally be observed.
+=only stereotyped sniffing
++=stereotyped sniffing and episodic licking
+++=Continuous licking and/or biting gnawing

[4] = system: serotonine (5-hydroxythryptamine, 5-HT) reuptake; experiment: Serotonin (5-HT) reuptake inhibition; format: biochemical; conditions: in combination with dopamine reuptake inhibition

Row | SMILES | IC50 [1] | Activity (excitatory locomotor and rearing responses, maximum peak effect) ([2]; 50 mg/kg i.p.) | Activity (high intensity abnormal stereotyped behaviour) ([3]; 50 mg/kg i.p.) | Activity (high intensity abnormal stereotyped behaviour) ([3]; 25 mg/kg i.p.) | dopamine reuptake inhibiting activity (in words) [1] | serotonine (5-HT) reuptake inhibiting activity [4] | side effects as measured by excitatory locomotor activity and rearing responses as well as abnormal stereotyped behaviour ([2]; every relevant dosing level tested)
1 | COC(=O)[C@@H]1[C@@H](c2ccc(Cl)c(Cl)c2)C[C@@H]2CC[C@H]1N2C [(1R,2R,3S)-2-carbomethoxy-3-(3,4-dichlorophenyl)tropane] | 16 nM | + | +++ | – | – | – | –
2 | COC(=O)[C@@H]1[C@@H](c2ccc3ccccc3c2)C[C@@H]2CC[C@H]1N2C [(1R,2R,3S)-2-carbomethoxy-3-(2-naphthyl)tropane] | 100 nM | – | – | 0 | – | – | –
3 | CN1[C@H]2CC[C@@H]1[C@H](COc1ccc(Cl)cc1)[C@@H](c1ccc(F)cc1)C2.Cl [(1R,2R,3S)-2-(4-Chlorophenoxy-methyl)-3-(4-fluorophenyl)tropane, hydrochloride] | 390 nM | – | 0 | – | potent dopamine reuptake inhibiting activity | very potent serotonine (5-hydroxythryptamine, 5-HT) reuptake inhibiting activity | –
4 | COC(=O)[C@@H]1[C@@H](c2ccc(F)cc2)C[C@@H]2CC[C@H]1N2C [trans isomer of Win 35,428, (1R,2R,3S)-2-carbomethoxy-3-(4-fluorophenyl)tropane] | – | – | – | – | – | – | essentially or totally devoid of side effects
